Legend:
[1] = test system: p53 and p21 in HCT116 colon cancer cell lines; assay: Western blot of p53 and p21 in isogenic HCT116 cell lines (FIG. 2A); type: cell-based, Human; settings: isogenic HCT116: wild-type, USP7 null
Experimental: (§1) In 24-well plates, 0.10-0.15×10^6 (adherent) or 0.5×10^6 (suspension) cells were treated with 15 μM or 2.5 μM compounds, respectively, for 24 h in low serum prior to lysis for Western Blot analysis.

[2] = test system: MDM2 in MCF7 breast cancer cells; assay: MDM2 turnover in MCF7 cells with cycloheximide (FIG. 3A); type: cell-based; settings: 15 μM, in the presence of cycloheximide (CHX)
Experimental: In 24-well plates, 0.15×10^6 MCF-7 cells were treated for a total of 8 h with DMSO or compounds (15 μM). During that 8 h, cycloheximide (CHX) was added for the indicated times prior to harvest.

[3] = test system: ubiquityl-MDM2 in SJSA-1 osteosarcoma cells; assay: Cellular ubiquityl-MDM2 assay (MSD Ub/Total MDM2); type: cell-based; settings: Homo sapiens; SJSA-1 cells, low serum conditions; read-out: increase in ubiquityl-MDM2 (EC50)
Experimental: HCT116 colon cancer cells or SJSA-1 osteosarcoma cells were seeded at a density of 150,000 cell per well in 90 ml (RPMI 1640 media, 10% FBS, 1× GlutaMAX™, Gibco) in 96-well black clear bottom, TC-treated (Greiner, Cat#655090), and incubated for 2 hours at 37° C., 5% CO2 in a tissue culture incubator. Compounds were prepared in a serial dilution in DMSO at 200× the final desired concentration in a 96-well polypropylene V-bottom (Greiner, Cat#651261), then diluted 1:20 in RPMI tissue culture medium and 10 ml transferred to each well of the cell plate. Cell plates were incubated overnight for 20 hours, 37° C., 5% CO2. 20 ml of a […] stock (in RPMI) of the proteasome inhibitor, MG132 (Cayman Chemical, Cat#10012628), was added to each well. Cells were incubated for 1 hour at 37° C., 5% CO2. Quantitation of ubiquityl-MDM2 was carried out using Ub/Total MDM2 whole cell lysate kit (MSD, Cat#K15168D-2). […] MSD read buffer was prepared according to manufacturer's instructions and 150 ml added per well. Plates were read using a MSD Sector Reader. […] Percentage increase in ubiquityl-MDM2 was calculated relative to DMSO controls using Genedata Screener software.

[4] = target: T1, USP7, full-length, native C-Terminus (Homo sapiens, UniProt Q93009); assay: Biochemical USP7 assay with Ubiquitin-Rho110 substrate, compounds pre-incubated with USP7 (USP7_Ub-Rho preInc); settings: compounds pre-mixed with USP7, 1 hour incubation, before substrate; read-out: USP7 Ub-Rho preInc (IC50)
T1 construct: USP7, full-length, native C-Terminus, 0.2 nM
T1 sequence (Q93009 whole entry): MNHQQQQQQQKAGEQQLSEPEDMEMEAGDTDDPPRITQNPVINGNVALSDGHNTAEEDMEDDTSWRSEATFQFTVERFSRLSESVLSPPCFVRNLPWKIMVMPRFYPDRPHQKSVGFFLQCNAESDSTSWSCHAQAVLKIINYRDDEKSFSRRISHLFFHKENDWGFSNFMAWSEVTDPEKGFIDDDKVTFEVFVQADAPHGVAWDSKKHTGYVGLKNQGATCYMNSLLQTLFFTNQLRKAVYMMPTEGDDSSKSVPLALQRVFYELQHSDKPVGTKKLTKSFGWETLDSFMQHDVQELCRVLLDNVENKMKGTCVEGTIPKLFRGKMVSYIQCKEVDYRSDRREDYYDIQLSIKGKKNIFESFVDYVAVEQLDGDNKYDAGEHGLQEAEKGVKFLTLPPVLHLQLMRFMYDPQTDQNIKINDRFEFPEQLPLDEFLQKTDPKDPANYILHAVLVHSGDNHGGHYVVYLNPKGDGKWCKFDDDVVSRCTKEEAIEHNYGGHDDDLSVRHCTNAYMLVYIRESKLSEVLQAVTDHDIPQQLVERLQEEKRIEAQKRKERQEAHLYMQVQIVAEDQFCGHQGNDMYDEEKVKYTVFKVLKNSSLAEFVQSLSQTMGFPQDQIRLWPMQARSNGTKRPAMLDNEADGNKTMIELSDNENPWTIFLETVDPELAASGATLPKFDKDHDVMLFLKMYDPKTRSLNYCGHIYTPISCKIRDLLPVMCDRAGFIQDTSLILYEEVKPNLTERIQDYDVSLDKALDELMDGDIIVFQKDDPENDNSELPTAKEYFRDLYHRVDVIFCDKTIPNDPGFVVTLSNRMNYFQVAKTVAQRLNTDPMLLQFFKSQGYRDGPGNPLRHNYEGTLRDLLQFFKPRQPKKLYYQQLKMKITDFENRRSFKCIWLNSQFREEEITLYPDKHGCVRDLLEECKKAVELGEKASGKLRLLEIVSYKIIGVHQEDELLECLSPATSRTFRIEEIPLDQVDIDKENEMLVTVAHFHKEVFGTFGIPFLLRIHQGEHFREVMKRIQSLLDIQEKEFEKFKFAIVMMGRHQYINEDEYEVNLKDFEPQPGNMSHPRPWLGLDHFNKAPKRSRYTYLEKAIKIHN
How it was run: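 Full-length USP7 (0.2 nM) cleaving Ubiquitin-Rho110 (1 uM) in pH 7.5 Tris buffer with DTT, 1 h at room temperature, acetic-acid quenched; Rho110 fluorescence at 485/535 nm. Pre-incubation variant: compound and USP7 mixed 1 h before substrate addition. IC50 from % inhibition versus no-enzyme and uninhibited controls.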

[5] = test system: p21 in KMS-21BM and KMS-28PE multiple myeloma cells; assay: Western blot in multiple myeloma cells (FIG. 13B); type: cell-based; settings: compared to 89
Experimental: as §1

In the case of CCc1c(-c2ccc3[nH]ncc3c2)cnc(N)c1-c1ccc(O)cc1 [Compound 88, 4-[2-amino-4-ethyl-5-(1H-indazol-5-yl)-3-pyridyl]phenol], the “stabilization of p53 and p21 (western blot)” value [1] is reported as “stabilize p53 and p21”, the “destabilizing effect on MDM2 (western blot)” value [2] is reported as “destabilizing effects” and the EC50 [3] is reported as 2000 nM. For the same compound, the IC50 [4] was 2100 nM and the “p21 levels (western blot)” value [5] was “increases p21 levels”.

Reference: US9573899B2, “USP7 inhibitor compounds and methods of use” (Genentech, Inc., priority 2015, dated 2017)
